Earlier results, collected in patent publication US12036321B2, “Compositions and methods for treating or preventing multiple organ dysfunction syndrome” (VIVACELLE BIO, INC., priority 2020, dated 2024).
Read-outs that look alike come from different tables or passages of the source. Blank lines part the entries; values can stand above or below the compound they belong to.

Assays:
[1] = Battion et al., J Amer Oil Chem Soc 1968
human neutrophils = conditions: Simpkins et al., Life Sci 1985
[2] = tested on: Nitric oxide synthase (NOS); conditions: nitric oxide synthase inhibitor, Lopez et al., Crit. Care Med. 2004

solubility of oxygen in lipid relative to water [1]: 4.41 times
SMILES: O=O [Oxygen]

SMILES: C=CCN1CC[C@]23c4c5ccc(O)c4O[C@H]2C(=O)CC[C@]3(O)[C@H]1C5 [(+) naloxone]
concentration range that produces anti-inflammatory effect (human neutrophils): 10^−5-10^−4 M

SMILES: CN=C(N)NCCC[C@H](N)C(=O)O.Cl [546C88]
outcome of trial in patients with septic shock [2]: increased mortality and multiple organ failure | outcome of trial in patients with septic shock ([2]; listed as 54C88): increased mortality
